Results taken from patent US5908862A, “Water-miscible esters of mono--and diglycerides having antibacterial activity and their use in inhibiting infection” (priority 1996, dated 1999).

Tested on: human respiratory syncytial virus (RSV) in LLC-MK2 cells
Test: RSV inhibition assay in LLC-MK2 cells (immunoperoxidase), PBS
Format: cell-based
Settings: Carrageenan's IC50; Carrageenan alone
Description: Additional studies were performed to determine the synergistic anti-viral effects of diacetyltartaric acid esters of mono- and diglycerides, lipophilic monoglycerides (MG) and carrageenan. These studies were carried out using […] and PBS as the diluent. The RSV inhibition assay semi-quantitatively determines the ability of a test material (antibody or other bioactive compound) to inhibit the infection of monkey kidney cells (LLC-MK2) by human respiratory syncytial virus (RSV). Infected cells are identified using an immunoperoxidase method and counted. The method is performed in a microtiter format and is described briefly below:
LLC-MK2 rhesus monkey kidney cells were obtained from the American Type Culture Collection and were cultured in Eagles […] essential medium (EMEM) supplemented with 10% fetal bovine serum. […] Plates were then rinsed as above with PBS/CEA, and the number of stained RSV-infected cells (IC) per well determined using an inverted microscope. The number of ICs' in triplicate wells was compared with the number of ICs' of virus control wells (mean of 9)and the percent inhibition (PI) calculated; [PI=1.0-[Mean ICs' per well of test sample/Mean ICs' per well of virus control]. […]

Which “Enhancement Factor” value does the source give for Carrageenan here?
Its value is 1.0.
